Among the data in US10214507B2, “Carbazole-containing amides, carbamates, and ureas as cryptochrome modulators” (Reset Therapeutics, Inc., priority 2014, dated 2019) are EC50 values, retold here.

SMILES strings stand for the structures.

What is called EC50 is the concentration needed to bring the measured effect to its halfway point. Lower therefore signals a more potent agent.

This test has as its system stable U20S reporter cells harboring Per2-dLuc. The test can be described thus: Per2 assay for evaluating the potency of test compounds (circadian luciferase reporter). In kind it is cell-based. The following applies: amplitude of Per2-dLuc luminescence vs log concentration. A digest of the protocol:
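U2OS Per2-dLuc cells grown 48 h at 37 °C, then synchronized with 5 μM forskolin plus 1 mM luciferin and dosed with 3-fold compound dilutions.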
A general note: In a reporter assay the amount or activity of a reporter protein is the signal.
Turning to `O=C1NCCN1CC(O)Cn1c2ccccc2c2ccccc21` (stereo not drawn) [Compound 84, 1-(3-(9H-carbazol-9-yl)-2-hydroxypropyl)imidazolidin-2-one], the EC50 stood at 0.325 µM.
Take `O=C1N(CC(O)Cn2c3ccc(F)cc3c3cc(F)ccc32)CCN1C1CC1` (stereo not drawn) [Compound 92, 1-cyclopropyl-3-(3-(3,6-difluoro-9H-carbazol-9-yl)-2-hydroxypropyl)imidazolidin-2-one]: the response was half-maximal at 0.527 µM (EC50).
Then `C[C@@H]1CCC(=O)N1C[C@H](O)Cn1c2ccc(F)cc2c2cc(F)ccc21` [Compound 109, (R)-1-((R)-3-(3,6-difluoro-9H-carbazol-9-yl)-2-hydroxypropyl)-5-methylpyrrolidin-2-one], with 0.226 µM; and `O=C1[C@H]2CC[C@H](C2)N1C[C@H](O)Cn1c2ccccc2c2ccccc21` [Compound 107, (1R,4S)-2-((R)-3-(9H-carbazol-9-yl)-2-hydroxypropyl)-2-azabicyclo[2.2.1]heptan-3-one], with 0.089 µM.
For `C[C@H]1CN(C[C@H](O)Cn2c3ccccc3c3ccccc32)C(=O)N1` [Compound 137, (S)-1-((R)-3-(9H-carbaxol-9-yl)-2-hydroxypropyl)-4-methylimidazolidin-2-one], the concentration for a half-maximal effect (EC50) amounted to 0.766 µM.
With `CC1CCN(CC(C)(O)Cn2c3ccc(F)cc3c3cc(F)ccc32)C(=O)C1` (stereo not drawn) [Compound 36, 1-(3-(3,6-difluoro-9H-carbazol-9-yl)-2-hydroxy-2-methylpropyl)-4-methylpiperidin-2-one], it took 0.76 µM to reach a half-maximal effect (EC50).
Take `O=C1[C@H]2CC[C@H](C2)N1C[C@H](O)Cn1c2ccc(F)cc2c2cc(F)ccc21` [Compound 105, (1R,4S)-2-((R)-3-(3,6-difluoro-9H-carbazol-9-yl)-2-hydroxypropyl)-2-azabicyclo[2.2.1]heptan-3-one]: the EC50 is 0.054 µM.
`CC(C)N1CCCN(CC(O)Cn2c3ccc(F)cc3c3cc(F)ccc32)C1=O` (stereo not drawn) [Compound 77, 1-(3-(3,6-difluoro-9H-carbazol-9-yl)-2-hydroxypropyl)-3-isopropyltetrahydropyrimidin-2(1H)-one] gave an EC50 of 0.62 µM.
In turn, `CC1CN(CC(O)Cn2c3ccc(F)cc3c3cc(F)ccc32)C(=O)N1` (stereo not drawn) [Compound 85, 1-(3-(3,6-difluoro-9H-carbazol-9-yl)-2-hydroxypropyl)-4-methylimidazolidin-2-one] had a concentration for a half-maximal effect (EC50) of 0.667 µM.
`CCN1CCCN(CC(C)(O)Cn2c3ccc(F)cc3c3cc(F)ccc32)C1=O` (stereo not drawn) [Compound 87, 1-(3-(3,6-difluoro-9H-carbazol-9-yl)-2-hydroxy-2-methylpropyl)-3-ethyltetrahydropyrimidin-2(1H)-one] returned an EC50 of 0.317 µM.
`C[C@@](O)(CN1CC[C@@H](F)C1=O)Cn1c2ccccc2c2ccccc21` [Compound 123, (R)-1-((S)-3-(9H-carbazol-9-yl)-2-hydroxy-2-methylpropyl)-3-fluoropyrrolidin-2-one] gave an EC50 of 0.311 µM.
Take `CC(O)(CN1CCCN(C2CCCCC2)C1=O)Cn1c2ccc(F)cc2c2cc(F)ccc21` (stereo not drawn) [Compound 82, 1-cyclohexyl-3-(3-(3,6-difluoro-9H-carbazol-9-yl)-2-hydroxy-2-methylpropyl)tetrahydropyrimidin-2(1H)-one]: the 50% effective concentration (EC50) stood at 1.19 µM.
As to `O=C1[C@H](F)CCN1C[C@H](O)Cn1c2ccccc2c2ccccc21` [Compound 121, (R)-1-((R)-3-(9H-carbazol-9-yl)-2-hydroxypropyl)-3-fluoropyrrolidin-2-one], it took 0.21 µM to reach a half-maximal effect (EC50).
The result for `O=C1NCCCN1CC(O)Cn1c2ccccc2c2ccccc21` (stereo not drawn) [Compound 3, 1-(3-(9H-carbazol-9-yl)-2-hydroxypropyl)tetrahydropyrimidin-2(1H)-one] reads 0.299 µM.
The result for `C[C@@](O)(CN1CC[C@@H](F)C1=O)Cn1c2ccc(F)cc2c2cc(F)ccc21` [Compound 126, (R)-1-((S)-3-(3,6-difluoro-9H-carbazol-9-yl)-2-hydroxy-2-methylpropyl)-3-fluoropyrrolidin-2-one] reads 0.958 µM; that for `C[C@H]1CN(C[C@H](O)Cn2c3ccc(F)cc3c3cc(F)ccc32)C(=O)N1` [Compound 135, (S)-1-((R)-3-(3,6-difluoro-9H-carbazol-9-yl)-2-hydroxypropyl)-4-methylimidazolidin-2-one], 1.13 µM.
The result for `CC(O)(CN1CCCC1=O)Cn1c2ccccc2c2ccccc21` (stereo not drawn) [Compound 67, 1-(3-(9H-carbazol-9-yl)-2-hydroxy-2-methylpropyl)pyrrolidin-2-one] reads 0.225 µM; that for `O=C1[C@@H]2CC[C@@H](C2)N1C[C@H](O)Cn1c2ccccc2c2ccccc21` [Compound 106, (1S,4R)-2-((R)-3-(9H-carbazol-9-yl)-2-hydroxypropyl)-2-azabicyclo[2.2.1]heptan-3-one], 0.22 µM.
Compound `C[C@@H]1CCN(C[C@H](O)Cn2c3ccccc3c3ccccc32)C1=O` [Compound 118, (R)-1-((R)-3-(9H-carbazol-9-yl)-2-hydroxypropyl)-3-methylpyrrolidin-2-one] returned an EC50 of 0.12 µM.
As for `CC(C)C1CCCN(CC(O)Cn2c3ccc(F)cc3c3cc(F)ccc32)C1=O` (stereo not drawn) [Compound 25, 1-(3-(3,6-difluoro-9H-carbazol-9-yl)-2-hydroxypropyl)-3-isopropylpiperidin-2-one], the midpoint of the response, the EC50, lay at 0.079 µM.
On to `CC(O)(CN1CCCCC1=O)Cn1c2ccccc2c2ccccc21` (stereo not drawn) [Compound 66, 1-(3-(9H-carbazol-9-yl)-2-hydroxy-2-methylpropyl)piperidin-2-one], for which the EC50 came out at 0.523 µM.
`O=C1C(C2CCCCC2)CCCN1CC(O)Cn1c2ccc(F)cc2c2cc(F)ccc21` (stereo not drawn) [Compound 20, 3-cyclohexyl-1-(3-(3,6-difluoro-9H-carbazol-9-yl)-2-hydroxypropyl)piperidin-2-one] had a concentration giving a half-maximal response (EC50) of 0.379 µM.
`O=C1[C@@H](F)CCN1C[C@H](O)Cn1c2ccccc2c2ccccc21` [Compound 122, (S)-1-((R)-3-(9H-carbazol-9-yl)-2-hydroxypropyl)-3-fluoropyrrolidin-2-one] registered an EC50 of 0.263 µM.
Then `O=C1C(C2CCC2)CCN1CC(O)Cn1c2ccc(F)cc2c2cc(F)ccc21` (stereo not drawn) [Compound 50, 3-cyclobutyl-1-(3-(3,6-difluoro-9H-carbazol-9-yl)-2-hydroxypropyl)pyrrolidin-2-one], with 0.204 µM; and `CC1CCCN(CC(O)Cn2c3ccccc3c3ccccc32)C1=O` (stereo not drawn) [Compound 64, 1-(3-(9H-carbazol-9-yl)-2-hydroxypropyl)-3-methylpiperidin-2-one], with 0.462 µM.
For `O=C1CCCN1CC(O)Cn1c2ccccc2c2ccccc21` (stereo not drawn) [Compound 68, 1-(3-(9H-carbazol-9-yl)-2-hydroxypropyl)pyrrolidin-2-one], a half-maximal response (EC50) required 0.288 µM.
`O=C1CCCN1CC(O)Cn1c2ccc(F)cc2c2cc(F)ccc21` (stereo not drawn) [Compound 7, 1-(3-(3,6-difluoro-9H-carbazol-9-yl)-2-hydroxypropyl)pyrrolidin-2-one] showed an EC50 of 0.625 µM.
As to `O=C1CC(C2CC2)CN1CC(O)Cn1c2ccccc2c2ccccc21` (stereo not drawn) [Compound 65, 1-(3-(9H-carbazol-9-yl)-2-hydroxypropyl)-4-cyclopropylpyrrolidin-2-one], the midpoint of the response, the EC50, lay at 1.03 µM.
`CC1CC(=O)N(CC(C)(O)Cn2c3ccc(F)cc3c3cc(F)ccc32)C1` (stereo not drawn) [Compound 44, 1-(3-(3,6-difluoro-9H-carbazol-9-yl)-2-hydroxy-2-methylpropyl)-4-methylpyrrolidin-2-one]: a half-maximal effect (EC50) was put at 1.06 µM.
Then `O=C1C(C2CCCC2)CCN1CC(O)Cn1c2ccc(F)cc2c2cc(F)ccc21` (stereo not drawn) [Compound 18, 3-cyclopentyl-1-(3-(3,6-difluoro-9H-carbazol-9-yl)-2-hydroxypropyl)pyrrolidin-2-one], with 0.338 µM.
